Experiments:
Test in all cases: relative viability (nuclei count vs DMSO), 5 days (fraction); higher = more cells survive
A-427 = tested on: A-427
How it was run: (§1)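 Each reported value is a median over duplicate plates. It expresses relative viability: treated-well nuclei count divided by vehicle-well nuclei count. Lung cancer cell lines in 1536-well plates were dosed by pin tool a day after seeding, alone with one drug or with a fixed anchor-drug dose plus five library-drug doses (not always all listed) in √10 steps, and nuclei were counted after 5 days.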

ABC-1 = tested on: ABC-1
How it was run: as §1

COR-L23 = tested on: COR-L23
How it was run: as §1

ChaGo-K-1 = tested on: ChaGo-K-1
How it was run: as §1

EMC-BAC-2 = tested on: EMC-BAC-2
How it was run: as §1

HARA = tested on: HARA
How it was run: as §1

HCC-15 = tested on: HCC-15
How it was run: as §1

HCC-366 = tested on: HCC-366
How it was run: as §1

HCC-78 = tested on: HCC-78
How it was run: as §1

LC-2-ad = tested on: LC-2-ad
How it was run: as §1

LK-2 = tested on: LK-2
How it was run: as §1

NCI-H1650 = tested on: NCI-H1650
How it was run: as §1

`Clc1ccc(Nc2nnc(Cc3ccncc3)c3ccccc23)cc1` [Vatalanib] + C[C@@H](Oc1cc(-c2cnn(C3CCNCC3)c2)cnc1N)c1c(Cl)ccc(F)c1Cl [Crizotinib] (partner 1 µM) showed a relative viability (A-427; first compound 0.04 µM) of 1.03, a relative viability (A-427; first compound 0.1265 µM) of 0.891 and a relative viability (A-427; first compound 0.4 µM) of 0.994. It also gave a relative viability (A-427; first compound 1.265 µM) of 0.879, a relative viability (A-427; first compound 4 µM) of 0.948 and a relative viability (ABC-1; first compound 0.04 µM) of 1.01. It also gave a relative viability (ABC-1; first compound 0.1265 µM) of 1, a relative viability (ABC-1; first compound 0.4 µM) of 1.37 and a relative viability (ABC-1; first compound 1.265 µM) of 0.89. The relative viability (ABC-1; first compound 4 µM) was 1.13, the relative viability (COR-L23; first compound 0.04 µM) was 0.7 and the relative viability (COR-L23; first compound 0.1265 µM) was 0.558. For the same molecule, the relative viability (COR-L23; first compound 0.4 µM) was 0.668, the relative viability (COR-L23; first compound 1.265 µM) was 0.683 and the relative viability (COR-L23; first compound 4 µM) was 0.632. The relative viability (ChaGo-K-1; first compound 0.04 µM) was 1.18, the relative viability (ChaGo-K-1; first compound 0.1265 µM) was 1.14 and the relative viability (ChaGo-K-1; first compound 1.265 µM) was 1.1. It also gave a relative viability (ChaGo-K-1; first compound 4 µM) of 1.09, a relative viability (EMC-BAC-2; first compound 0.04 µM) of 0.703 and a relative viability (EMC-BAC-2; first compound 0.1265 µM) of 0.76. The relative viability (EMC-BAC-2; first compound 0.4 µM) was 0.75, the relative viability (EMC-BAC-2; first compound 1.265 µM) was 0.752 and the relative viability (EMC-BAC-2; first compound 4 µM) was 0.742. It also gave a relative viability (HARA; first compound 0.04 µM) of 0.99, a relative viability (HARA; first compound 0.1265 µM) of 0.956 and a relative viability (HARA; first compound 0.4 µM) of 1.01. For the same molecule, the relative viability (HARA; first compound 1.265 µM) was 1.07, the relative viability (HARA; first compound 4 µM) was 0.998 and the relative viability (HCC-15; first compound 0.04 µM) was 0.9. For the same molecule, the relative viability (HCC-15; first compound 0.1265 µM) was 0.768, the relative viability (HCC-15; first compound 0.4 µM) was 0.79 and the relative viability (HCC-15; first compound 1.265 µM) was 0.812. For the same molecule, the relative viability (HCC-15; first compound 4 µM) was 0.841, the relative viability (HCC-366; first compound 0.04 µM) was 0.545 and the relative viability (HCC-366; first compound 0.1265 µM) was 0.383. The relative viability (HCC-366; first compound 0.4 µM) was 0.592, the relative viability (HCC-366; first compound 1.265 µM) was 0.487 and the relative viability (HCC-366; first compound 4 µM) was 0.35. It also gave a relative viability (HCC-78; first compound 0.04 µM) of 0.318, a relative viability (HCC-78; first compound 0.1265 µM) of 0.324 and a relative viability (HCC-78; first compound 0.4 µM) of 0.35. The relative viability (HCC-78; first compound 4 µM) was 0.306, the relative viability (LC-2-ad; first compound 0.04 µM) was 0.515 and the relative viability (LC-2-ad; first compound 0.1265 µM) was 0.436. The relative viability (LC-2-ad; first compound 1.265 µM) was 0.456, the relative viability (LC-2-ad; first compound 4 µM) was 0.458 and the relative viability (LK-2; first compound 0.04 µM) was 0.243. The relative viability (LK-2; first compound 0.1265 µM) was 0.232, the relative viability (LK-2; first compound 1.265 µM) was 0.252 and the relative viability (LK-2; first compound 4 µM) was 0.233. It also gave a relative viability (NCI-H1650; first compound 0.04 µM) of 0.933, a relative viability (NCI-H1650; first compound 0.1265 µM) of 0.997 and a relative viability (NCI-H1650; first compound 0.4 µM) of 1.06. It also gave a relative viability (NCI-H1650; first compound 1.265 µM) of 0.92.

Reference: the supplement of paper PMC10307832
